Measurements taken from the NIST ThermoML archive (doi:10.1016/j.fluid.2013.09.026).
Numbers after ± are expanded uncertainties.

Test: cn = amount concentration of the nth substance listed, in mol/dm3
Settings: 303 K, 101 kPa, Liquid; for viscosity: Capillary tube (Ostwald / Ubbelohde) method; for speed of sound: Linear variable-path acoustic interferometer; for mass density: Pycnometric method

Row | Structure (SMILES) | viscosity (c1 = 0.002) | viscosity (c1 = 0.004) | viscosity (c1 = 0.006) | viscosity (c1 = 0.008) | viscosity (c1 = 0.01) | viscosity (c1 = 0.012) | viscosity (c1 = 0.014) | viscosity (c1 = 0.016) | viscosity (c1 = 0.018) | viscosity (c1 = 0.02) | speed of sound (c1 = 0.002) | speed of sound (c1 = 0.004) | speed of sound (c1 = 0.006) | speed of sound (c1 = 0.008) | speed of sound (c1 = 0.01) | speed of sound (c1 = 0.012) | speed of sound (c1 = 0.014) | speed of sound (c1 = 0.016) | speed of sound (c1 = 0.018) | speed of sound (c1 = 0.02) | other results
1 | O=C1C(Cl)=C(Cl)C(=O)C(Cl)=C1Cl [2,3,5,6-tetrachloro-p-benzoquinone] + C[S+](C)[O-] | 1.756 ± 0.017 mPa·s | 1.757 ± 0.017 mPa·s | 1.758 ± 0.017 mPa·s | 1.773 ± 0.017 mPa·s | 1.769 ± 0.017 mPa·s | 1.767 ± 0.017 mPa·s | 1.76 ± 0.017 mPa·s | 1.756 ± 0.017 mPa·s | 1.767 ± 0.017 mPa·s | 1.769 ± 0.017 mPa·s | 1472.4 ± 3.2 m/s | 1472.6 ± 3.2 m/s | 1471.9 ± 3.2 m/s | 1471.3 ± 3.2 m/s | 1471.6 ± 3.2 m/s | 1470.3 ± 3.2 m/s | 1467.1 ± 3.2 m/s | 1468.3 ± 3.2 m/s | 1468.5 ± 3.2 m/s | 1468.7 ± 3.2 m/s | mass density (c1 = 0.002): 1091.4 ± 0.8 kg/m3; mass density (c1 = 0.004): 1091.6 ± 0.8 kg/m3; mass density (c1 = 0.006): 1091.9 ± 0.8 kg/m3; mass density (c1 = 0.008): 1091.9 ± 0.8 kg/m3; mass density (c1 = 0.01): 1092.1 ± 0.8 kg/m3; mass density (c1 = 0.012): 1091.6 ± 0.8 kg/m3; mass density (c1 = 0.014): 1091.4 ± 0.8 kg/m3; mass density (c1 = 0.016): 1091.2 ± 0.8 kg/m3; mass density (c1 = 0.018): 1091.7 ± 0.8 kg/m3; mass density (c1 = 0.02): 1091.7 ± 0.8 kg/m3
2 | Cc1ccccc1N [2-methylaniline] + C[S+](C)[O-] | 1.713 ± 0.016 mPa·s | 1.713 ± 0.016 mPa·s | 1.723 ± 0.016 mPa·s | 1.718 ± 0.016 mPa·s | 1.72 ± 0.016 mPa·s | 1.723 ± 0.016 mPa·s | 1.718 ± 0.016 mPa·s | 1.724 ± 0.016 mPa·s | 1.733 ± 0.016 mPa·s | 1.723 ± 0.016 mPa·s | 1471.4 ± 3.2 m/s | 1471.8 ± 3.2 m/s | 1472 ± 3.2 m/s | 1471.2 ± 3.2 m/s | 1472.6 ± 3.2 m/s | 1473.5 ± 3.2 m/s | 1472.5 ± 3.2 m/s | 1471.9 ± 3.2 m/s | 1473 ± 3.2 m/s | 1473.9 ± 3.2 m/s | mass density (c1 = 0.002): 1090.8 ± 0.8 kg/m3; mass density (c1 = 0.004): 1090.4 ± 0.8 kg/m3; mass density (c1 = 0.006): 1090.5 ± 0.8 kg/m3; mass density (c1 = 0.008): 1089.6 ± 0.9 kg/m3; mass density (c1 = 0.01): 1089.5 ± 0.8 kg/m3; mass density (c1 = 0.012): 1090 ± 0.8 kg/m3; mass density (c1 = 0.014): 1089.7 ± 0.8 kg/m3; mass density (c1 = 0.016): 1089.8 ± 0.8 kg/m3; mass density (c1 = 0.018): 1089.4 ± 0.8 kg/m3; mass density (c1 = 0.02): 1090.3 ± 0.9 kg/m3
3 | CN(C)c1ccccc1 [N,N-dimethylaniline] + C[S+](C)[O-] | 1.734 ± 0.016 mPa·s | 1.725 ± 0.016 mPa·s | 1.721 ± 0.016 mPa·s | 1.731 ± 0.016 mPa·s | 1.747 ± 0.017 mPa·s | 1.724 ± 0.016 mPa·s | 1.73 ± 0.016 mPa·s | 1.731 ± 0.016 mPa·s | 1.733 ± 0.016 mPa·s | 1.732 ± 0.016 mPa·s | 1471.9 ± 3.2 m/s | 1472.5 ± 3.2 m/s | 1471.9 ± 3.2 m/s | 1472.6 ± 3.2 m/s | 1471.8 ± 3.2 m/s | 1472.1 ± 3.2 m/s | 1472.3 ± 3.2 m/s | 1471.6 ± 3.2 m/s | 1472.2 ± 3.2 m/s | 1472 ± 3.2 m/s | mass density (c1 = 0.002): 1090.7 ± 0.8 kg/m3; mass density (c1 = 0.004): 1090.4 ± 0.8 kg/m3; mass density (c1 = 0.006): 1090.7 ± 0.8 kg/m3; mass density (c1 = 0.008): 1090.6 ± 0.8 kg/m3; mass density (c1 = 0.01): 1089.9 ± 0.8 kg/m3; mass density (c1 = 0.012): 1089.6 ± 0.8 kg/m3; mass density (c1 = 0.014): 1090.1 ± 0.8 kg/m3; mass density (c1 = 0.016): 1089.8 ± 0.8 kg/m3; mass density (c1 = 0.018): 1090.3 ± 0.8 kg/m3; mass density (c1 = 0.02): 1090.2 ± 0.8 kg/m3
4 | CNc1ccccc1 [N-methylaniline] + C[S+](C)[O-] | 1.713 ± 0.016 mPa·s | 1.713 ± 0.016 mPa·s | 1.723 ± 0.016 mPa·s | 1.718 ± 0.016 mPa·s | 1.724 ± 0.016 mPa·s | 1.733 ± 0.016 mPa·s | 1.723 ± 0.016 mPa·s | 1.718 ± 0.016 mPa·s | 1.718 ± 0.016 mPa·s | 1.72 ± 0.016 mPa·s | 1471.6 ± 3.2 m/s | 1471.8 ± 3.2 m/s | 1472 ± 3.2 m/s | 1471.2 ± 3.2 m/s | 1471.7 ± 3.2 m/s | 1473.5 ± 3.2 m/s | 1472.5 ± 3.2 m/s | 1471.9 ± 3.2 m/s | 1473 ± 3.2 m/s | 1473.9 ± 3.2 m/s | mass density (c1 = 0.002): 1090.8 ± 0.8 kg/m3; mass density (c1 = 0.004): 1090.4 ± 0.8 kg/m3; mass density (c1 = 0.006): 1090 ± 0.8 kg/m3; mass density (c1 = 0.008): 1089.6 ± 0.8 kg/m3; mass density (c1 = 0.01): 1089.8 ± 0.8 kg/m3; mass density (c1 = 0.012): 1090 ± 0.8 kg/m3; mass density (c1 = 0.014): 1089.7 ± 0.8 kg/m3; mass density (c1 = 0.016): 1089.8 ± 0.8 kg/m3; mass density (c1 = 0.018): 1089.8 ± 0.8 kg/m3; mass density (c1 = 0.02): 1090.1 ± 0.8 kg/m3
5 | Nc1ccccc1 [aniline] + C[S+](C)[O-] | 1.789 ± 0.017 mPa·s | 1.798 ± 0.017 mPa·s | 1.79 ± 0.017 mPa·s | 1.79 ± 0.017 mPa·s | 1.806 ± 0.017 mPa·s | 1.777 ± 0.017 mPa·s | 1.802 ± 0.017 mPa·s | 1.819 ± 0.018 mPa·s | 1.79 ± 0.017 mPa·s | 1.792 ± 0.017 mPa·s | 1471.6 ± 3.2 m/s | 1473.9 ± 3.2 m/s | 1473.4 ± 3.2 m/s | 1472.7 ± 3.2 m/s | 1474.1 ± 3.2 m/s | 1473.7 ± 3.2 m/s | 1472.7 ± 3.2 m/s | 1472.8 ± 3.2 m/s | 1473 ± 3.2 m/s | 1474 ± 3.2 m/s | mass density (c1 = 0.002): 1090.4 ± 0.8 kg/m3; mass density (c1 = 0.004): 1090.6 ± 0.8 kg/m3; mass density (c1 = 0.006): 1090.7 ± 0.8 kg/m3; mass density (c1 = 0.008): 1090.2 ± 0.8 kg/m3; mass density (c1 = 0.01): 1090.6 ± 0.8 kg/m3; mass density (c1 = 0.012): 1090.4 ± 0.8 kg/m3; mass density (c1 = 0.014): 1090.5 ± 0.8 kg/m3; mass density (c1 = 0.016): 1090.3 ± 0.8 kg/m3; mass density (c1 = 0.018): 1090.4 ± 0.8 kg/m3; mass density (c1 = 0.02): 1090.6 ± 0.8 kg/m3
